Laboratory results published in patent US11065300B2, “Immunomodulator for hypersensitivity reaction to house dust mite-derived allergen” (MD HEALTHCARE INC., priority 2016, dated 2021).

Test system: macrophage RAW264.7
Experiment: IL-6 and TNF-alpha secretion by macrophages given MicA sRNA Salmonella vesicles mixed with PMB
Type: cell-based
Method: Salmonella-derived vesicles themselves have good immunogenicity, but toxicity due to LPS present in the extracellular membrane is a problem. In order to solve this problem, the induction level of innate immune response was evaluated by mixing PMB inhibiting the activity of LPS with vesicles derived from Salmonella overexpressing Mic A sRNA.
Specifically, inflammatory cells (macrophage RAW264.7, 5×10^5 cells/well) were cultured in DMEM comprising 10% FBS and antibiotics (100 units/ml penicillin and 100 μg/ml streptomycin) for 24 hours at 37° C. 24 well tissue culture plate (TPP). After the medium was removed, extracellular vesicles comprising PMB were changed to serum-free DMEM medium added at a concentration of 1 ug/ml. After 15 hours, secretion of IL-6 and TNF-alpha was measured in inflammatory cells.
In order to determine the optimum PMB dilution concentration, in the above method, the PMB concentration was subdivided into 1, 2, 4, 8, and 10 ug/ml and administered to the macrophages together with the vesicles.

For polymyxin B [PMB], the IL-6 secretion (PMB 1 μg/ml or 10 μg/ml mixed with vesicles 1 ug/ml, RAW264.7, 15 hours) was “decreased”, the TNF-alpha secretion (PMB 10 μg/ml mixed with vesicles 1 ug/ml, RAW264.7, 15 hours) was “inhibited” and the “PMB concentration above which secretion of IL-6 no longer decreased” value (PMB 1, 2, 4, 8 and 10 ug/ml with vesicles, RAW264.7) was 2 µg/mL.
